For data set [1], the system named is MDA-MB-231. Put plainly: Antiproliferative activity against human MDA-MB-231 cells assessed as inhibition of cell growth measured after 48 hrs by SRB assay. Type of data set: functional, cell-based. The settings on record: MDA-MB-231, 48 h, read-out: IC50.
Data set [2] concerns MCF7. Nature of the data set: Antiproliferative activity against human MCF-7 cells assessed as proportion of dead cells at 12.5 ug/ml measured after 3 weeks by crystal violet staining based soft agar colony formation assay. The note with it: dose 12.5 µg/ml. Format: functional.
Data set [3] concerns MCF7. Put plainly: Induction of cell cycle arrest in human MCF-7 cells assessed as accumulation at G2/M phase at 2.17 uM by propidium iodide staining based flow cytometry (reference value: 15.2%). Type of data set: functional.
The subject of data set [4] is MCF7. Put plainly: Induction of apoptosis in human MCF-7 cells assessed as proportion of late apoptotic cells at 8.66 uM measured after 24 hrs by Annexin V- FITC/propidium iodide staining based flow cytometry (reference value: 0.1%). Type of data set: functional.
Data set [5] concerns MDA-MB-231. Put plainly: Induction of apoptosis in human MDA-MB-231 cells assessed as proportion of viable cells at 2.6 uM measured after 24 hrs by Annexin V-FITC/propidium iodide staining based flow cytometry (reference value: 99%). Format: functional.
Data set [6] relates to MDA-MB-231. Put plainly: Induction of apoptosis in human MDA-MB-231 cells assessed as proportion of early apoptotic cells at 2.6 uM measured after 24 hrs by Annexin V-FITC/propidium iodide staining based flow cytometry (reference value: 0.2%). Type of data set: functional.
Data set [7] deals with DNA topoisomerase 2-alpha (Homo sapiens) (UniProt P11388). Nature of the data set: Inhibition of DNA-topoisomerase 2 in human MCF7 cells using kinetoplast DNA as substrate at 4.33 uM measured by ELISA. Type of data set: cell-based.
Sequence of DNA topoisomerase 2-alpha (Homo sapiens) (P11388 whole entry): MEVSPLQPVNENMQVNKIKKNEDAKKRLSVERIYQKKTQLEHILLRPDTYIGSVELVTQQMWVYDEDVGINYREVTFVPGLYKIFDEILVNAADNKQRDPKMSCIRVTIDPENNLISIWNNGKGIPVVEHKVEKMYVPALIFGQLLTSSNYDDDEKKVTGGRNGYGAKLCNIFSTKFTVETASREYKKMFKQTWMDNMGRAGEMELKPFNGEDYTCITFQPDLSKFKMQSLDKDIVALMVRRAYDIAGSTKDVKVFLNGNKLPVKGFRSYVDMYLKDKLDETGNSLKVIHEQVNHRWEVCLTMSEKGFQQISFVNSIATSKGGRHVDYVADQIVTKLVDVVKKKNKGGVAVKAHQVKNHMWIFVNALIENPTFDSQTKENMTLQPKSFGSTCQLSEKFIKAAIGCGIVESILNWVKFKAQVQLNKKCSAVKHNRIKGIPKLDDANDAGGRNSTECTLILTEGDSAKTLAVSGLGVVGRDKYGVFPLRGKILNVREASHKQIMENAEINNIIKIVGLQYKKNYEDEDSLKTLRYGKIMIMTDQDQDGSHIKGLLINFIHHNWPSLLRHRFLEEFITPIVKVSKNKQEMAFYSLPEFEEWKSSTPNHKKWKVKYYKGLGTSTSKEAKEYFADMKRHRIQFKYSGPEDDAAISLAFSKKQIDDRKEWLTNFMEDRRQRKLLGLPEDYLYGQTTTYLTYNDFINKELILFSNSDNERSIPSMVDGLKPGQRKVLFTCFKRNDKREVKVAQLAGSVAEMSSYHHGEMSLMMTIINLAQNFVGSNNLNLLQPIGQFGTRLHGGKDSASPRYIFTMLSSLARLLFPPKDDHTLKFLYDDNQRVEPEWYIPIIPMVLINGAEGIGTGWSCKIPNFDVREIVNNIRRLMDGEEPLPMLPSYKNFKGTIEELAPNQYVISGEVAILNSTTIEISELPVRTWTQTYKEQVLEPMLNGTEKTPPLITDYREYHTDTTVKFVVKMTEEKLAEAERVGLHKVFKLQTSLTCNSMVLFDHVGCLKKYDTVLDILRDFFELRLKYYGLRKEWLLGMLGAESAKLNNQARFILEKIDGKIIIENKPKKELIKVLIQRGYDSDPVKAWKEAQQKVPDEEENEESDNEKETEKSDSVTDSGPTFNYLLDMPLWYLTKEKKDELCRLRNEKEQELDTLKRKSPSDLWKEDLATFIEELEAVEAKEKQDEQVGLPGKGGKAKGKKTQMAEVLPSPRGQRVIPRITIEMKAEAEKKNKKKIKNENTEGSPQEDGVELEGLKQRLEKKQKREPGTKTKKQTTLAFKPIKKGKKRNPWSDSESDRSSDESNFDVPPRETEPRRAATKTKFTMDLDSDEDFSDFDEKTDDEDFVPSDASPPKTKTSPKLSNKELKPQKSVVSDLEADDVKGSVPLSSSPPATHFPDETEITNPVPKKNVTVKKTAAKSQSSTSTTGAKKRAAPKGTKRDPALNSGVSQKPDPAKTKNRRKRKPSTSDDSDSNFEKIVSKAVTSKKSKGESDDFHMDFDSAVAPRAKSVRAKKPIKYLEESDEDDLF
Data set [8] in a line: Toxicity in Swiss albino mouse assessed as RBC level in blood at 50 mg/kg, po administered as single dose (reference value: 10.56 +/- 1.22x10^6/mm3). Format: organism-based. The settings on record: in vivo.
The nature of data set [9]: Toxicity in Swiss albino mouse assessed as ALP level in serum at 50 mg/kg, po administered as single dose (reference value: 195.8 +/-12.06 U/L). Format: organism-based. The note with it: in vivo.
The nature of data set [10]: Toxicity in Swiss albino mouse assessed as SGOT level in serum at 300 mg/kg, po administered as single dose (reference value: 22.12 +/-1.91 U/L). Format: organism-based. The note with it: in vivo.
Data set [11] can be described thus: Toxicity in Swiss albino mouse assessed as absolute and relative brain weight at 5 to 300 mg/kg, po administered as single dose. Type of data set: organism-based. The settings on record: in vivo, dose 5-300 mg/kg.

Structures are written as SMILES.

Regarding `COc1ccc(C(c2ccccc2OCCN2CCCC2)c2cccc3ccccc23)c(OC)c1OC` (stereo unspecified), in the data set on MDA-MB-231 [1], the IC50 was determined as 5.21 µM. In addition, the Activity with MCF7 [2] was 52.8%; in the data set with MCF7 [3], 12.1%; with MCF7 [4], 25.8%; in the data set on MDA-MB-231 [5] it was 95.1%; with MDA-MB-231 [6], 0.8%; in data set [8], 9.84 million/mm3. Moreover, the Activity in [9] is recorded as 182.4 U/L; in data set [10] it was 25.61 U/L; in data set [11] it was “Non-Toxic”. Besides, the inhibition in data set [7] was 0.22%.

Values taken from ChEMBL document CHEMBL4680139, “Antiproliferative activity of diarylnaphthylpyrrolidine derivative via dual target inhibition” (Eur J Med Chem, 2020).
